The test has as its target S1P1 (Homo sapiens (Human), UniProt P21453). Nature of the test: 35S-GTPγS binding, membranes from CHO cells expressing S1P1. The following applies: CHO cell membranes. The format is biochemical. The protocol: Cells were suspended in 50 mM TRIS, pH 7.4, 2 mM EDTA, 250 mM Sucrose (buffer A) and 1× Complete protease inhibitor cocktail (Roche), and disrupted at 4° C. by N2 decompression using a cell disruption bomb (Parr Instrument). Following centrifugation at 1000 RPM for 10 min at 4° C., the supernatant was suspended in buffer A and centrifuged again at 19000 RPM for 60 min at 4° C. The pellet was then suspended in 10 mM HEPES, pH 7.4, 1 mM EDTA, 250 mM Sucrose (Buffer B), and 1× Complete EDTA-free protease inhibitor cocktail and homogenized using a potter. Membranes were flash frozen in liquid N2 and stored at −80° C. [33P]sphingosine 1-phosphate (3000 Ci/mmol; American Radiolabeled Chemicals, Inc.) was added to test compounds in DMSO. […] Specific binding was calculated by subtracting remaining radioactivity in the presence of 1000-fold excess of unlabeled SIP. Binding data were analyzed using the GraphPad Prism program.
After 60 min incubation at 30° C. on a shaker, plates were centrifuged for 10 min at 2000 RPM. […] Triplicate samples were averaged and expressed as % response relative to S1P activation in absence of compound (n=2).
(In general: GTPγS is a poorly hydrolysed GTP analogue; its binding reports G protein activation.)

pEC50: −log10 of the molar value. Counter-ions that a name gives are not always drawn.

Sequence of S1P1 (P21453 whole entry, species assumed): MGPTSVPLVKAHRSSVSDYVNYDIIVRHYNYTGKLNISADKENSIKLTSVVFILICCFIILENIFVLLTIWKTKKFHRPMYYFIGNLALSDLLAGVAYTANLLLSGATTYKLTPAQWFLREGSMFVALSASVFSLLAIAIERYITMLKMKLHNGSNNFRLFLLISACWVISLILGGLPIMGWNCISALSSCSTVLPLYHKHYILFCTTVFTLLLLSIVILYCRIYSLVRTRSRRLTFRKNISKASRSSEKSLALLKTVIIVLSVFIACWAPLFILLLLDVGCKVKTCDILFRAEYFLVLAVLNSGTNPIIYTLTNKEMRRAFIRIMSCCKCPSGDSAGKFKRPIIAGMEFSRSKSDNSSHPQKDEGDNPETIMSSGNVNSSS

As a reminder, the pEC50 is −log10 of the EC50, conventionally taken in molar units. With `O=C(O)C1CCN(Cc2ccc(-c3noc(-c4cnn(C5CCCCC5)c4-c4ccncc4)n3)cc2)CC1` [Example 71, 1-{4-[5-(1-cyclohexyl-5-pyridin-4-yl-1H-pyrazol-4-yl)-1,2,4-oxadiazol-3-yl]benzyl}piperidine-4-carboxylic acid], the pEC50 is 8.22.

For `COCc1c(-c2nc(-c3ccc(CN(C)CC(=O)O)cc3)no2)cnn1C1CCCCC1` [Example 72, N-(4-{5-[1-cyclohexyl-5-(methoxymethyl)-1H-pyrazol-4-yl]-1,2,4-oxadiazol-3-yl}benzyl)-N-methylglycine], the pEC50 was 6.92.

Compound `COCc1c(-c2nc(-c3ccc(CN4CC(O)C4)cc3)no2)cnn1C1CCCCC1` [Example 73, 1-(4-{5-[1-cyclohexyl-5-(methoxymethyl)-1H-pyrazol-4-yl]-1,2,4-oxadiazol-3-yl}benzyl)azetidin-3-ol] had a pEC50 of 7.52.

Turning to `COCc1c(-c2nc(-c3ccc(CN4CCC(O)C4)cc3)no2)cnn1C1CCCCC1` (stereo not drawn) [Example 74, 1-(4-{5-[1-cyclohexyl-5-(methoxymethyl)-1H-pyrazol-4-yl]-1,2,4-oxadiazol-3-yl}benzyl)pyrrolidin-3-ol], the pEC50 was 7.07.

In the case of `COCc1c(-c2nc(-c3ccc(CN(C)C)cc3)no2)cnn1C1CCCCC1` [Example 75, 1-(4-{5-[1-cyclohexyl-5-(methoxymethyl)-1H-pyrazol-4-yl]-1,2,4-oxadiazol-3-yl}phenyl)-N,N-dimethylmethanamine], the negative logarithm of the EC50 (pEC50) was 7.20.

For `COCc1c(-c2nc(-c3ccc(CN4CC(C(=O)O)C4)cc3)no2)cnn1CC(C)C` [Example 76, 1-(4-{5-[1-isobutyl-5-(methoxymethyl)-1H-pyrazol-4-yl]-1,2,4-oxadiazol-3-yl}benzyl)azetidine-3-carboxylic acid], the negative logarithm of the EC50 (pEC50) is 7.64.

Take `CC(C)Cn1ncc(-c2nc(-c3ccc(CN(C)CC(=O)O)cc3)no2)c1-c1ccncc1` [Example 77, N-{4-[5-(1-isobutyl-5-pyridin-4-yl-1H-pyrazol-4-yl)-1,2,4-oxadiazol-3-yl]benzyl}-N-methylglycine]: the pEC50 is 6.08.

On to `COCCNCc1ccc(-c2noc(-c3cnn(C4CCCCC4)c3-c3ccncc3)n2)cc1` [Example 78, N-(4-(5-(1-cyclohexyl-5-(pyridin-4-yl)-1H-pyrazol-4-yl)-1,2,4-oxadiazol-3-yl)benzyl)-2-methoxyethanamine], for which the pEC50 was 7.17.

In turn, `CC(C)Cn1ncc(-c2nc(-c3ccc(CN4CCC(O)C4)cc3)no2)c1-c1ccncc1` (stereo not drawn) [Example 80, 1-(4-(5-(1-isobutyl-5-(pyridin-4-yl)-1H-pyrazol-4-yl)-1,2,4-oxadiazol-3-yl)benzyl)pyrrolidin-3-ol, formate] had a pEC50 of 6.60.

Turning to `CC(C)Cn1ncc(-c2nc(-c3ccc(CN(C)C)cc3)no2)c1-c1ccncc1` [Example 81, 1-(4-(5-(1-isobutyl-5-(pyridin-4-yl)-1H-pyrazol-4-yl)-1,2,4-oxadiazol-3-yl)phenyl)-N,N-dimethylmethanamine, formate], the negative-log EC50 (pEC50) is 6.71.

In turn, `CC(C)Cn1ncc(-c2nc(-c3ccc(CN4CC(O)C4)cc3)no2)c1-c1ccncc1` [Example 82, 1-(4-(5-(1-isobutyl-5-(pyridin-4-yl)-1H-pyrazol-4-yl)-1,2,4-oxadiazol-3-yl)benzyl)azetidin-3-ol, formate] gave a pEC50 of 6.81.

Compound `Cc1nn(C2CCCCC2)cc1-c1nc(-c2cc(F)ccc2F)no1` [Example 83, 5-(1-cyclohexyl-3-methyl-1H-pyrazol-4-yl)-3-(2,5-difluorophenyl)-1,2,4-oxadiazole] gave a pEC50 of 6.50.

For the compound `COCc1c(-c2nc(-c3ccc(CNCCC(=O)O)cc3)no2)cnn1CC(C)C` [Example 84, 3-(4-(5-(1-isobutyl-5-(methoxymethyl)-1H-pyrazol-4-yl)-1,2,4-oxadiazol-3-yl)benzylamino)propanoic acid], the pEC50 is 6.54.

On to `CNCc1ccc(-c2noc(-c3cnn(CC(C)C)c3-c3ccncc3)n2)cc1` [Example 85, 1-(4-(5-(1-isobutyl-5-(pyridin-4-yl)-1H-pyrazol-4-yl)-1,2,4-oxadiazol-3-yl)phenyl)-N-methylmethanamine], for which the pEC50 was 6.75.

Consider `Cc1c(-c2nc(-c3cc(F)ccc3F)no2)cnn1C1CCCCC1` [Example 86, 5-(1-cyclohexyl-5-methyl-1H-pyrazol-4-yl)-3-(2,5-difluorophenyl)-1,2,4-oxadiazole], for which the pEC50 was 6.51.

`FC(F)(F)c1cccc(-c2noc(-c3cnn(C4CCCCC4)c3C3CCOCC3)n2)c1` [Example 87, 5-(1-cyclohexyl-5-(tetrahydro-2H-pyran-4-yl)-1H-pyrazol-4-yl)-3-(3-(trifluoromethyl)phenyl)-1,2,4-oxadiazole] showed a pEC50 of 6.44.

For `CNCc1ccc(-c2noc(-c3cnn(C4CCCCC4)c3C3CCOCC3)n2)cc1` [Example 88, 1-(4-(5-(1-cyclohexyl-5-(tetrahydro-2H-pyran-4-yl)-1H-pyrazol-4-yl)-1,2,4-oxadiazol-3-yl)phenyl)-N-methylmethanamine], the negative logarithm of the EC50 (pEC50) was 7.33.

For the compound `CC(C)(C)Cn1ncc(-c2nc(-c3cccc(C(F)(F)F)c3)no2)c1-c1ccncc1` [Example 90, 5-(1-neopentyl-5-(pyridin-4-yl)-1H-pyrazol-4-yl)-3-(3-(trifluoromethyl)phenyl)-1,2,4-oxadiazole], the pEC50 was 7.46.

`Brc1ccc(-c2noc(-c3cnn(C4CCCCC4)c3-c3ccncc3)n2)cc1` [Example 92, 3-(4-bromophenyl)-5-(1-cyclohexyl-5-(pyridin-4-yl)-1H-pyrazol-4-yl)-1,2,4-oxadiazole]: the pEC50 is 6.80.

`CC(C)(C)Cn1ncc(-c2nc(-c3cc(F)ccc3F)no2)c1-c1ccncc1` [Example 93, 3-(2,5-difluorophenyl)-5-(1-neopentyl-5-(pyridin-4-yl)-1H-pyrazol-4-yl)-1,2,4-oxadiazole] gave a pEC50 of 6.52.

`OCc1ccc(-c2noc(-c3cnn(CC4CC4)c3-c3ccncc3)n2)cc1` [Example 94, (4-(5-(1-(cyclopropylmethyl)-5-(pyridin-4-yl)-1H-pyrazol-4-yl)-1,2,4-oxadiazol-3-yl)phenyl)methanol] gave a pEC50 of 6.41.

The compound `c1cc(-c2c(-c3nc(-c4ccc5nccn5c4)no3)cnn2C2CCCCC2)ccn1` [Example 95, 5-(1-cyclohexyl-5-(pyridin-4-yl)-1H-pyrazol-4-yl)-3-(imidazo[1,2-a]pyridin-6-yl)-1,2,4-oxadiazole] showed a pEC50 of 7.02.

In turn, `Fc1ccc(F)c(-c2noc(-c3cnn(CCc4ccccc4)c3-c3ccncc3)n2)c1` [Example 99, 3-(2,5-difluorophenyl)-5-(1-phenethyl-5-(pyridin-4-yl)-1H-pyrazol-4-yl)-1,2,4-oxadiazole] had a pEC50 of 6.30.

As to `CC(C)(C)Cn1ncc(-c2nc(-c3ccc(CO)cc3)no2)c1-c1ccncc1` [Example 100, (4-(5-(1-neopentyl-5-(pyridin-4-yl)-1H-pyrazol-4-yl)-1,2,4-oxadiazol-3-yl)phenyl)methanol], the pEC50 is 6.42.

`COCCc1c(-c2nc(-c3cc(F)ccc3F)no2)cnn1C1CCCCC1` [Example 103, 5-(1-cyclohexyl-5-(2-methoxyethyl)-1H-pyrazol-4-yl)-3-(2,5-difluorophenyl)-1,2,4-oxadiazole] had a pEC50 of 7.46.

On to `CNCc1ccc(-c2noc(-c3cnn(CC(C)(C)C)c3-c3ccncc3)n2)cc1` [Example 104, N-methyl-1-(4-(5-(1-neopentyl-5-(pyridin-4-yl)-1H-pyrazol-4-yl)-1,2,4-oxadiazol-3-yl)phenyl)methanamine], for which the negative-log EC50 (pEC50) is 6.50.

For the compound `CNCc1ccc(-c2noc(-c3cnn(CCc4ccccc4)c3-c3ccncc3)n2)cc1` [Example 106, N-methyl-1-(4-(5-(1-phenethyl-5-(pyridin-4-yl)-1H-pyrazol-4-yl)-1,2,4-oxadiazol-3-yl)phenyl)methanamine], the negative logarithm of the EC50 (pEC50) is 6.34.

For `COCc1c(-c2nc(-c3ccc(Cn4cncn4)cc3)no2)cnn1C1CCCCC1` [Example 107, 3-(4-((1H-1,2,4-triazol-1-yl)methyl)phenyl)-5-(1-cyclohexyl-5-(methoxymethyl)-1H-pyrazol-4-yl)-1,2,4-oxadiazole], the negative logarithm of the EC50 (pEC50) is 7.35.

Compound `COCCc1c(-c2nc(-c3cccc(C(F)(F)F)c3)no2)cnn1C1CCCCC1` [Example 108, 5-(1-cyclohexyl-5-(2-methoxyethyl)-1H-pyrazol-4-yl)-3-(3-(trifluoromethyl)phenyl)-1,2,4-oxadiazole] showed a negative-log EC50 (pEC50) of 6.99.

Regarding `COCc1c(-c2nc(-c3ccc(CCO)cc3)no2)cnn1C1CCCCC1` [Example 109, 2-(4-(5-(1-cyclohexyl-5-(methoxymethyl)-1H-pyrazol-4-yl)-1,2,4-oxadiazol-3-yl)phenyl)ethanol], the pEC50 is 6.51.

As to `O=C(O)C1CN(Cc2ccc(-c3noc(-c4cnn(CCc5ccccc5)c4-c4ccncc4)n3)cc2)C1` [Example 110, 1-(4-(5-(1-phenethyl-5-(pyridin-4-yl)-1H-pyrazol-4-yl)-1,2,4-oxadiazol-3-yl)benzyl)azetidine-3-carboxylic acid, formate], the pEC50 was 7.40.

In turn, `COCCc1c(-c2nc(-c3ccc(Cn4cncn4)cc3)no2)cnn1C1CCCCC1` [Example 111, 3-(4-((1H-1,2,4-triazol-1-yl)methyl)phenyl)-5-(1-cyclohexyl-5-(2-methoxyethyl)-1H-pyrazol-4-yl)-1,2,4-oxadiazole] showed a pEC50 of 7.54.

`CCOc1c(-c2nc(-c3cc(F)ccc3F)no2)cnn1-c1ccccc1C` [Example 112, 3-(2,5-difluorophenyl)-5-(5-ethoxy-1-o-tolyl-1H-pyrazol-4-yl)-1,2,4-oxadiazole] gave a pEC50 of 7.03.

The values above are taken from patent publication US8802663B2, “Pyrazole oxadiazole derivatives as S1P1 agonists” (Merck Serono SA, priority 2009, dated 2014).
